Results taken from patent publication US8134015B2, “Compound inhibiting in vivo phosphorous transport and medicine containing the same” (Kyowa Hakko Kirin Co., Ltd., priority 2003, dated 2012).

What follows are molecules tested against T1, rat NaPi-2b (Rattus norvegicus, UniProt Q9JJ09) (assay: Sodium-dependent phosphate uptake of Xenopus oocytes which expressed NaPi-2b (32P)). Conditions: Xenopus oocytes expressing rat NaPi-2b, 32P radioactive phosphorus; read-out: IC50 (phosphate uptake inhibitory activity).
T1 construct: expressed in transfected cells; host or cells: Xenopus oocytes injected with cRNA
T1 sequence (Q9JJ09 1-695): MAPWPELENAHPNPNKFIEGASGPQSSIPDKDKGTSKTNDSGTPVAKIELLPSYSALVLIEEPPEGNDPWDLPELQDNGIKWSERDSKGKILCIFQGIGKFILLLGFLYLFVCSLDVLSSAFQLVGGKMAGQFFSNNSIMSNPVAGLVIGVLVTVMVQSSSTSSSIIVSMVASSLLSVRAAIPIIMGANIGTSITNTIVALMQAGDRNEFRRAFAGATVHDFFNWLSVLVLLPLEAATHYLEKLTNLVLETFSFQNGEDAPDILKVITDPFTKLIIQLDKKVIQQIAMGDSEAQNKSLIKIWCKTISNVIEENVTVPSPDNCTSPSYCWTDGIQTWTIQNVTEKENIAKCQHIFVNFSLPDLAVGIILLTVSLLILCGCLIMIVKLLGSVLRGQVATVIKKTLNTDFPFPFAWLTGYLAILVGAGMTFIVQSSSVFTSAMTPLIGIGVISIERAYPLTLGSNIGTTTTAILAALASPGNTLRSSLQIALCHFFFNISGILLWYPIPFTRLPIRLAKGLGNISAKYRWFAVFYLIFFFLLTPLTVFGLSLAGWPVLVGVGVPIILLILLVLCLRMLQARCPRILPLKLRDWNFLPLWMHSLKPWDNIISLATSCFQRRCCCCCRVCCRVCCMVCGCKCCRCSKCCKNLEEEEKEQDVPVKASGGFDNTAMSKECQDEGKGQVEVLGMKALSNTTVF
Format: cell-based
Outline: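 Oocytes injected with rat NaPi-2b cRNA, cultured 2 d, then 32P uptake measured with compound. Values: % inhibition at 300 and 100 μM, both from one inhibition curve.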
Molecule `COc1cc(OC)cc(C(=O)Nc2ccc(Br)cc2C(=O)N/N=C/c2ccc(OC)c(OC)c2)c1` [Compound 128, N-[4-Bromo-2-(3,4-dimethoxy-benzylidene-hydrazinocarbonyl)-phenyl]-3,5-dimethoxy-benzamide] has an IC50 of 11.6 µM.
Molecule `CCSCCNCc1ccc(C(=O)Nc2ccc(Br)cc2C(=O)N/N=C/c2ccc(C)c(C)c2)cc1` [Compound 764, N-[4-Bromo-2-(3,4-dimethyl-benzylidene-hydrazinocarbonyl)-phenyl]-4-[(2-ethylsulfanyl-ethylamino)-methyl]-benzamide] has an IC50 of 5.92 µM.
In the case of `Cc1ccc(/C=N/NC(=O)c2cc(Cl)ccc2NC(=O)c2ccccn2)cc1C` [Compound 363, Pyridin-2-carboxylic acid [4-chloro-2-(3,4-dimethyl-benzylidene-hydrazinocarbonyl)-phenyl]-amide], the IC50 is reported as less than 1 µM.
`O=C(Nc1ccc(I)cc1C(=O)N/N=C/c1ccc(F)cc1)c1cccc(CN2CCC(N3CCCCC3)CC2)c1` [Compound 483, 3-[1,4′]Bipiperidinyl-1′-ylmethyl-N-[2-(4-fluoro-benzylidene-hydrazinocarbonyl)-4-iodo-phenyl]-benzamide] gave an IC50 of less than 3 µM.
`CCN(CC)CCN(C)Cc1cccc(C(=O)Nc2ccc(OCCOCCOC)cc2C(=O)N/N=C/c2ccc(C)c(C)c2)c1` [Compound 1035, 3-{[(2-Diethylamino-ethyl)-methyl-amino]-methyl}-N-{2-(3,4-dimethyl-benzylidene-hydrazinocarbonyl)-4-[2-(2-methoxy-ethoxy)-ethoxy]-phenyl}-benzamide] was tested, and the IC50 was 3.7 µM.
`O=C(Nc1ccccc1C(=O)N/N=C/c1cccc(F)c1)c1ccc(F)cc1` [Compound 76, 4-Fluoro-N-[2-(3-fluoro-benzylidene-hydrazinocarbonyl)-phenyl]-benzamide] gave an IC50 of 13.2 µM.
Work on `CCN(CC)CCN(CCN(CC)CC)Cc1cccc(C(=O)Nc2ccc(N3CCCCC3)cc2C(=O)N/N=C/c2ccc(C)c(C)c2)c1` [Compound 905, 3-{[Bis-(2-diethylamino-ethyl)-amino]-methyl}-N-[2-(3,4-dimethyl-benzylidene-hydrazinocarbonyl)-4-piperidin-1-yl-phenyl]-benzamide] yielded an IC50 of 1.18 µM.
Work on `COc1cc(OC)cc(C(=O)Nc2ccccc2C(=O)N/N=C/c2ccc(C)cc2)c1` [Compound 57, 3,5-Dimethoxy-N-[2-(4-methyl-benzylidene-hydrazinocarbonyl)-phenyl]-benzamide] yielded an IC50 of 1.02 µM.
`O=C(Nc1ccc(Br)cc1C(=O)N/N=C/c1ccc(Cl)c(C(F)(F)F)c1)c1ccc(CNCCN2CCOCC2)cc1` [Compound 714, N-[4-Bromo-2-(4-chloro-3-trifluoromethyl-benzylidene-hydrazinocarbonyl)-phenyl]-4-[(2-morpholin-4-yl-ethylamino)-methyl]-benzamide] was tested, and the IC50 was 3.52 µM.
For `CCN(CC)CCN(C)Cc1cccc(C(=O)Nc2ccc(OCCOCCOC)cc2C(=O)N/N=C/c2ccc(Cl)c(C(F)(F)F)c2)c1` [Compound 1036, N-{2-(4-Chloro-3-trifluoromethyl-benzylidene-hydrazinocarbonyl)-4-[2-(2-methoxy-ethoxy)-ethoxy]-phenyl}-3-{[(2-diethylamino-ethyl)-methyl-amino]-methyl}-benzamide], the IC50 was 1.5 µM.
Work on `CCOc1ccc(C(=O)Nc2ccc(Br)cc2C(=O)N/N=C/c2ccc(C)cc2)cc1` [Compound 503, N-[4-Bromo-2-(4-methyl-benzylidene-hydrazinocarbonyl)-phenyl]-4-ethoxy-benzamide] yielded an IC50 of 10.3 µM.
For `O=C(Nc1ccc(Br)cc1C(=O)N/N=C/c1ccc(Cl)c(C(F)(F)F)c1)c1cccc(CSc2ccncc2)c1` [Compound 200, N-[4-Bromo-2-(4-chloro-3-trifluoromethyl-benzylidene-hydrazinocarbonyl)-phenyl]-3-(pyridin-4-ylsulfanylmethyl)-benzamide], the IC50 was 0.39 µM.
`Cc1cccc(/C=N/NC(=O)c2cc(Br)ccc2NC(=O)c2cccc(CSc3ccncc3)c2)c1` [Compound 197, N-[4-Bromo-2-(3-methyl-benzylidene-hydrazinocarbonyl)-phenyl]-3-(pyridin-4-ylsulfanylmethyl)-benzamide] showed an IC50 of 4.87 µM.
`Cc1ccc(/C=N/NC(=O)c2ccccc2NC(=O)c2cccnc2)cc1C` [Compound 133, N-[2-(3,4-Dimethyl-benzylidene-hydrazinocarbonyl)-phenyl]-nicotinamide] gave an IC50 of 0.88 µM.
Molecule `O=C(Nc1ccc(Cl)cc1C(=O)N/N=C/c1ccc(Cl)c(C(F)(F)F)c1)c1cccc(CSCC(O)CO)c1` (stereo not shown) [Compound 1010, N-[4-Chloro-2-(4-chloro-3-trifluoromethyl-benzylidene-hydrazinocarbonyl)-phenyl]-3-(2,3-dihydroxy-propylsulfanylmethyl)-benzamide] has an IC50 of 0.24 µM.
For `COc1ccc(/C=N/NC(=O)c2cc(N3CCCC3)ccc2NC(=O)c2cccc(CSCCO)c2)cc1` [Compound 921, 3-(2-Hydroxy-ethylsulfanylmethyl)-N-[2-(4-methoxy-benzylidene-hydrazinocarbonyl)-4-pyrrolidin-1-yl-phenyl]-benzamide], the IC50 was 1.22 µM.
With `O=c1c2c3c(sc2nc(-c2cccc(CSc4nc[nH]n4)c2)n1/N=C/c1cccc(F)c1)CCCC3` [Compound 649, 3-[(3-Fluoro-benzylidene)-amino]-2-[3-(1H-[1,2,4]triazol-3-ylsulfanylmethyl)-phenyl]-5,6,7,8-tetrahydro-3H-benzo[4,5]thieno[2,3-d]pyrimidin-4-one] the IC50 was 2.69 µM.
With `CCN(CCO)Cc1ccc(C(=O)Nc2ccc(Cl)cc2C(=O)N/N=C/c2ccc(OC)cc2)cc1` [Compound 439, N-[4-Chloro-2-(4-methoxy-benzylidene-hydrazinocarbonyl)-phenyl]-4-{[ethyl-(2-hydroxy-ethyl)-amino]-methyl}-benzamide] the IC50 was 28.7 µM.
Work on `Cc1ccc(/C=N/NC(=O)c2cc(Cl)ccc2NC(=O)c2cccnc2)cc1C` [Compound 188, N-[4-Chloro-2-(3,4-dimethyl-benzylidene-hydrazinocarbonyl)-phenyl]-nicotinamide] yielded an IC50 of 19.4 µM.
Molecule `CC(O)CN(Cc1cccc(C(=O)Nc2ccc(N3CCCC3=O)cc2C(=O)N/N=C/c2ccc(Cl)c(C(F)(F)F)c2)c1)CC(C)O` (stereo not shown) [Compound 945, 3-{[Bis-(2-hydroxy-propyl)-amino]-methyl}-N-[2-(4-chloro-3-trifluoromethyl-benzylidene-hydrazinocarbonyl)-4-(2-oxo-pyrrolidin-1-yl)-phenyl]-benzamide] has an IC50 of 19.4 µM.
With `COc1ccc(C(=O)Nc2ccccc2C(=O)N/N=C/c2ccc(Cl)c(C(F)(F)F)c2)cc1OC` [Compound 41, N-[2-(4-Chloro-3-trifluoromethyl-benzylidene-hydrazinocarbonyl)-phenyl]-3,4-dimethoxy-benzamide] the IC50 was 2.43 µM.
`CCN(CCO)Cc1ccc(C(=O)Nc2ccc(Cl)cc2C(=O)N/N=C/c2cccc(OC)c2)cc1` [Compound 438, N-[4-Chloro-2-(3-methoxy-benzylidene-hydrazinocarbonyl)-phenyl]-4-{[ethyl-(2-hydroxy-ethyl)-amino]-methyl}-benzamide] gave an IC50 of 26.3 µM.
In the case of `O=C(Nc1sc2c(c1C(=O)N/N=C/c1cccc(F)c1)CCCC2)c1cccc(CSCCCO)c1` [Compound 607, N-[3-(3-Fluoro-benzylidene-hydrazinocarbonyl)-4,5,6,7-tetrahydro-benzo[b]thiophen-2-yl]-3-(3-hydroxy-propylsulfanylmethyl)-benzamide], the IC50 is reported as 0.43 µM.

Same assay, conditions: phosphate uptake, oocytes expressing rat NaPi-2b; 300 μM, determined from inhibition curve
Molecule `CC(O)CN(Cc1cccc(C(=O)Nc2sccc2C(=O)N/N=C/c2ccc(Cl)c(C(F)(F)F)c2)c1)CC(C)O` (stereo not shown) [Compound 779, 3-{[Bis-(2-hydroxy-propyl)-amino]-methyl}-N-[3-(4-chloro-3-trifluoromethyl-benzylidene-hydrazinocarbonyl)-thiophen-2-yl]-benzamide] has an inhibition at 300 µM of 51.6%.
`Cc1ccc(/C=N/NC(=O)c2c(C)csc2NC(=O)c2cccc(CSCCS(=O)(=O)O)c2)cc1C` [Compound 781, 2-{3-[3-(3,4-Dimethyl-benzylidene-hydrazinocarbonyl)-4-methyl-thiophen-2-ylcarbamoyl]-benzylsulfanyl}-ethanesulfonic acid] showed an inhibition at 300 µM of 51.2%.
`Cc1ccc(/C=N/NC(=O)c2scc(C)c2NC(=O)c2cccc(CN3CCN(CCO)CC3)c2)cc1` [Compound 533, 3-[4-(2-Hydroxy-ethyl)-piperazin-1-ylmethyl]-N-[4-methyl-2-(4-methyl-benzylidene-hydrazinocarbonyl)-thiophen-3-yl]-benzamide] showed an inhibition at 300 µM of 36.9%.
With `Cc1ccc(/C=N/NC(=O)c2scc(C)c2NC(=O)c2cccc(CSCCCO)c2)cc1` [Compound 526, 3-(3-Hydroxy-propylsulfanylmethyl)-N-[4-methyl-2-(4-methyl-benzylidene-hydrazinocarbonyl)-thiophen-3-yl]-benzamide] the inhibition at 300 µM was 40.2%.
`CCN(CC)CCN(C)Cc1cccc(C(=O)Nc2ccc(N3CCCN(C)CC3)cc2C(=O)N/N=C/c2ccc(OC)cc2)c1` [Compound 931, 3-{[(2-Diethylamino-ethyl)-methyl-amino]-methyl}-N-[2-(4-methoxy-benzylidene-hydrazinocarbonyl)-4-(4-methyl-[1,4]diazepan-1-yl)-phenyl]-benzamide] gave an inhibition at 300 µM of 31.2%.
